Source: article PMC10065276, “Enhanced therapeutic window for antimicrobial Pept-ins by investigating their structure-activity relationship” (PLOS ONE, 2023)
Values after ≈ are worked out from the molar mass of the structure shown. Residues, ends and D or L forms follow the SMILES beside them.

Test system: E. coli BL21
Settings: BL21, 17 h
Method: The peptide MIC was determined via the broth microdilution assay according to the EUCAST guideline, using 96-well polystyrene flat-bottom microtiter plates (BD Biosciences). Briefly, a single colony was inoculated in 5 mL Mueller-Hinton (MH) medium and incubated, while shaking at 37°C, to the end-exponential growth phase. The bacterial culture was subsequently diluted to 0.005 McFarland (McF) (~1.5x10^6 CFU/mL) with fresh MH medium. Two-fold serial peptide-dilutions were prepared in 50 μL MH medium resulting in a concentration range of 0.75 to 100 μg/mL (at least three wells for each concentration). Afterwards, 50 μL of the freshly diluted bacterial suspension (0.005 McF) was mixed with different peptide concentrations in the 96-well plate, performed in triplicates. The plate was ultimately incubated at 37°C overnight without shaking for 17 hours. The MIC was determined as the lowest peptide concentration without visible bacterial growth.

Structure (SMILES)	BL21 MIC [µg/mL]	MIC against E. coli BL21 [µg/mL]
CC(C)C[C@H](NC(=O)CNC(=O)[C@H](CCCNC(=N)N)NC(=O)[C@@H]1CCCN1C(=O)[C@H](CCCNC(=N)N)NC(=O)[C@H](CCCNC(=N)N)NC(=O)[C@@H](NC(=O)[C@H](CC(C)C)NC(=O)[C@H](Cc1c[nH]c2ccccc12)NC(=O)[C@H](CC(C)C)NC(=O)CNC(=O)[C@H](CC(C)C)NC(=O)CNC(=O)[C@@H](N)CCCNC(=N)N)C(C)C)C(=O)NCC(=O)N[C@@H](CC(C)C)C(=O)N[C@@H](Cc1c[nH]c2ccccc12)C(=O)N[C@@H](CC(C)C)C(=O)N[C@H](C(=O)N[C@@H](CCCNC(=N)N)C(=O)N[C@@H](CCCNC(=N)N)C(=O)O)C(C)C [A5W (P2)] (H-RGLGLWLVRRPRGLGLWLVRR-OH)	12.50	
CC(C)C[C@H](NC(=O)CNC(=O)[C@H](CC(C)C)NC(=O)CNC(=O)[C@H](CCCNC(=N)N)NC(=O)[C@@H]1CCCN1C(=O)[C@H](CCCNC(=N)N)NC(=O)[C@H](CCCNC(=N)N)NC(=O)[C@@H](NC(=O)[C@H](CC(C)C)NC(=O)CNC(=O)[C@H](CC(C)C)NC(=O)CNC(=O)[C@H](CC(C)C)NC(=O)CNC(=O)[C@@H](N)CCCNC(=N)N)C(C)C)C(=O)NCC(=O)N[C@@H](CC(C)C)C(=O)N[C@H](C(=O)N[C@@H](CCCNC(=N)N)C(=O)N[C@@H](CCCNC(=N)N)C(=O)O)C(C)C [A5G (P2)] (H-RGLGLGLVRRPRGLGLGLVRR-OH)	25.00	
CC(C)C[C@H](NC(=O)CNC(=O)[C@H](CCCNC(=N)N)NC(=O)[C@@H]1CCCN1C(=O)[C@H](CCCNC(=N)N)NC(=O)[C@H](CCCNC(=N)N)NC(=O)[C@@H](NC(=O)[C@H](C)NC(=O)[C@H](C)NC(=O)[C@H](CC(C)C)NC(=O)CNC(=O)[C@H](CC(C)C)NC(=O)CNC(=O)[C@@H](N)CCCNC(=N)N)C(C)C)C(=O)NCC(=O)N[C@@H](CC(C)C)C(=O)N[C@@H](C)C(=O)N[C@@H](CC(C)C)C(=O)N[C@H](C(=O)N[C@@H](CCCNC(=N)N)C(=O)N[C@@H](CCCNC(=N)N)C(=O)O)C(C)C [Peptide P2_L7A] (H-RGLGLAAVRRPRGLGLALVRR-OH)	50.00	
CSCC[C@H](NC(=O)[C@H](CC(C)C)NC(=O)CNC(=O)[C@H](CC(C)C)NC(=O)CNC(=O)[C@H](CCCNC(=N)N)NC(=O)[C@@H]1CCCN1C(=O)[C@H](CCCNC(=N)N)NC(=O)[C@H](CCCNC(=N)N)NC(=O)[C@@H](NC(=O)[C@H](CC(C)C)NC(=O)[C@H](C)NC(=O)[C@H](CC(C)C)NC(=O)CNC(=O)[C@H](CC(C)C)NC(=O)CNC(=O)[C@@H](N)CCCNC(=N)N)C(C)C)C(=O)N[C@@H](CC(C)C)C(=O)N[C@H](C(=O)N[C@@H](CCCNC(=N)N)C(=O)N[C@@H](CCCNC(=N)N)C(=O)O)C(C)C [Peptide P2_A5M] (H-RGLGLALVRRPRGLGLMLVRR-OH)	6.25	
CC(C)C[C@H](NC(=O)CNC(=O)[C@H](CCCNC(=N)N)NC(=O)[C@@H](NC(=O)CNC(=O)[C@H](C)NC(=O)[C@H](CCCNC(=N)N)NC(=O)[C@@H](NC(=O)[C@H](CC(C)C)NC(=O)[C@H](C)NC(=O)[C@H](CC(C)C)NC(=O)CNC(=O)[C@H](CC(C)C)NC(=O)CNC(=O)[C@@H](N)CCCNC(=N)N)C(C)C)C(C)C)C(=O)NCC(=O)N[C@@H](CC(C)C)C(=O)N[C@@H](C)C(=O)N[C@@H](CC(C)C)C(=O)N[C@H](C(=O)N[C@@H](C)C(=O)N[C@@H](CCCNC(=N)N)C(=O)O)C(C)C [Peptide P2_4R_GV] (H-RGLGLALVRAGVRGLGLALVAR-OH)	6.25	6.3 (≈ 2.88 µM)
CC[C@H](C)[C@H](NC(=O)CNC(=O)[C@H](CC(C)C)NC(=O)[C@H](CCCNC(=N)N)NC(=O)[C@@H]1CCCN1C(=O)[C@H](CCCNC(=N)N)NC(=O)[C@H](CCCNC(=N)N)NC(=O)[C@H](CC(C)C)NC(=O)[C@H](C)NC(=O)[C@@H](NC(=O)[C@H](C)NC(=O)[C@H](C)NC(=O)CNC(=O)[C@H](CC(C)C)NC(=O)[C@@H](N)CCCNC(=N)N)C(C)C)C(=O)N[C@@H](C)C(=O)N[C@H](C(=O)N[C@@H](C)C(=O)N[C@@H](CC(C)C)C(=O)N[C@@H](CCCNC(=N)N)C(=O)N[C@@H](CCCNC(=N)N)C(=O)O)C(C)C [Peptide P33-I4A] (H-RLGAAVALRRPRLGIAVALRR-OH)	12.50	
CC[C@H](C)[C@H](NC(=O)CNC(=O)[C@H](CC(C)C)NC(=O)[C@H](CCCNC(=N)N)NC(=O)[C@@H]1CCCN1C(=O)[C@H](CCCNC(=N)N)NC(=O)[C@H](CC(C)C)NC(=O)[C@H](C)NC(=O)[C@@H](NC(=O)[C@H](C)NC(=O)[C@@H](NC(=O)CNC(=O)[C@H](CC(C)C)NC(=O)[C@@H](N)CCCNC(=N)N)[C@@H](C)CC)C(C)C)C(=O)N[C@@H](C)C(=O)N[C@H](C(=O)N[C@@H](C)C(=O)N[C@@H](CC(C)C)C(=O)N[C@@H](CCCNC(=N)N)C(=O)O)C(C)C [Peptide P33_4R_1] (H-RLGIAVALRPRLGIAVALR-OH)	6.25	
CC[C@H](C)[C@H](NC(=O)CNC(=O)[C@H](CC(C)C)NC(=O)[C@H](CCCNC(=N)N)NC(=O)[C@@H]1CCCN1C(=O)[C@H](CCCNC(=N)N)NC(=O)[C@H](CCCNC(=N)N)NC(=O)[C@H](CC(C)C)NC(=O)[C@H](C)NC(=O)[C@@H](NC(=O)[C@H](C)NC(=O)[C@@H](NC(=O)[C@H](C)NC(=O)[C@H](CC(C)C)NC(=O)[C@@H](N)CCCNC(=N)N)[C@@H](C)CC)C(C)C)C(=O)N[C@@H](C)C(=O)N[C@H](C(=O)N[C@@H](C)C(=O)N[C@@H](CC(C)C)C(=O)N[C@@H](CCCNC(=N)N)C(=O)N[C@@H](CCCNC(=N)N)C(=O)O)C(C)C [Peptide P33-G3A] (H-RLAIAVALRRPRLGIAVALRR-OH)	6.25	
CC[C@H](C)[C@H](NC(=O)CNC(=O)[C@H](C)NC(=O)[C@H](CCCNC(=N)N)NC(=O)[C@@H]1CCCN1C(=O)[C@H](CCCNC(=N)N)NC(=O)[C@H](CCCNC(=N)N)NC(=O)[C@H](CC(C)C)NC(=O)[C@H](C)NC(=O)[C@@H](NC(=O)[C@H](C)NC(=O)[C@@H](NC(=O)CNC(=O)[C@H](CC(C)C)NC(=O)[C@@H](N)CCCNC(=N)N)[C@@H](C)CC)C(C)C)C(=O)N[C@@H](C)C(=O)N[C@H](C(=O)N[C@@H](C)C(=O)N[C@@H](CC(C)C)C(=O)N[C@@H](CCCNC(=N)N)C(=O)N[C@@H](CCCNC(=N)N)C(=O)O)C(C)C [Peptide P33-L13A] (H-RLGIAVALRRPRAGIAVALRR-OH)	6.25	
CC[C@H](C)[C@H](NC(=O)CNC(=O)[C@H](CC(C)C)NC(=O)[C@H](CCCNC(=N)N)NC(=O)[C@@H]1CCCN1C(=O)[C@H](CCCNC(=N)N)NC(=O)[C@H](C)NC(=O)[C@H](CC(C)C)NC(=O)[C@H](C)NC(=O)[C@@H](NC(=O)[C@H](C)NC(=O)[C@@H](NC(=O)CNC(=O)[C@H](CC(C)C)NC(=O)[C@@H](N)CCCNC(=N)N)[C@@H](C)CC)C(C)C)C(=O)N[C@@H](C)C(=O)N[C@H](C(=O)N[C@@H](C)C(=O)N[C@@H](CC(C)C)C(=O)N[C@@H](C)C(=O)N[C@@H](CCCNC(=N)N)C(=O)O)C(C)C [Peptide P33_4R_3] (H-RLGIAVALARPRLGIAVALAR-OH)	50.00	
CC(C)C[C@H](NC(=O)CNC(=O)[C@H](CCCNC(=N)N)NC(=O)[C@@H]1CCCN1C(=O)[C@H](CCCNC(=N)N)NC(=O)[C@H](C)NC(=O)[C@@H](NC(=O)[C@H](CC(C)C)NC(=O)[C@H](C)NC(=O)[C@H](CC(C)C)NC(=O)CNC(=O)[C@H](CC(C)C)NC(=O)CNC(=O)[C@@H](N)CCCNC(=N)N)C(C)C)C(=O)NCC(=O)N[C@@H](CC(C)C)C(=O)N[C@@H](C)C(=O)N[C@@H](CC(C)C)C(=O)N[C@H](C(=O)N[C@@H](C)C(=O)N[C@@H](CCCNC(=N)N)C(=O)O)C(C)C [R9A, R20A] (H-RGLGLALVARPRGLGLALVAR-OH)	50.00	
CC[C@H](C)[C@H](NC(=O)CNC(=O)[C@H](CC(C)C)NC(=O)[C@H](CCCNC(=N)N)NC(=O)[C@@H]1CCCN1C(=O)[C@H](CC(C)C)NC(=O)[C@H](C)NC(=O)[C@@H](NC(=O)[C@H](C)NC(=O)[C@@H](NC(=O)CNC(=O)[C@H](CC(C)C)NC(=O)[C@@H](N)CCCNC(=N)N)[C@@H](C)CC)C(C)C)C(=O)N[C@@H](C)C(=O)N[C@H](C(=O)N[C@@H](C)C(=O)N[C@@H](CC(C)C)C(=O)N[C@@H](CCCNC(=N)N)C(=O)O)C(C)C [Peptide P33_3R_1] (H-RLGIAVALPRLGIAVALR-OH)	12.5	
CC[C@H](C)[C@H](NC(=O)CNC(=O)[C@H](CC(C)C)NC(=O)[C@H](CCCNC(=N)N)NC(=O)[C@@H]1CCCN1C(=O)[C@H](CCCNC(=N)N)NC(=O)[C@H](CCCNC(=N)N)NC(=O)[C@H](CC(C)C)NC(=O)[C@H](C)NC(=O)[C@@H](NC(=O)[C@H](C)NC(=O)[C@@H](NC(=O)CNC(=O)[C@H](CC(C)C)NC(=O)[C@@H](N)CCCNC(=N)N)[C@@H](C)CC)C(C)C)C(=O)N[C@@H](C)C(=O)N[C@@H](C)C(=O)N[C@@H](C)C(=O)N[C@@H](CC(C)C)C(=O)N[C@@H](CCCNC(=N)N)C(=O)N[C@@H](CCCNC(=N)N)C(=O)O [Peptide P33-V17A] (H-RLGIAVALRRPRLGIAAALRR-OH)	6.25	
CC(C)C[C@H](NC(=O)CNC(=O)[C@H](CCCNC(=N)N)NC(=O)[C@@H]1CCCN1C(=O)[C@H](CCCNC(=N)N)NC(=O)[C@H](CCCNC(=N)N)NC(=O)[C@H](Cc1c[nH]cn1)NC(=O)[C@H](Cc1c[nH]cn1)NC(=O)[C@H](C)NC(=O)[C@H](CC(C)C)NC(=O)CNC(=O)[C@H](CC(C)C)NC(=O)CNC(=O)[C@@H](N)CCCNC(=N)N)C(=O)NCC(=O)N[C@@H](CC(C)C)C(=O)N[C@@H](C)C(=O)N[C@@H](Cc1c[nH]cn1)C(=O)N[C@@H](Cc1c[nH]cn1)C(=O)N[C@@H](CCCNC(=N)N)C(=O)N[C@@H](CCCNC(=N)N)C(=O)O [P2_zero_tango_3] (H-RGLGLAHHRRPRGLGLAHHRR-OH)	>100.00	
